What was measured:
PfSTART1 = biological target: T1, PfSTART1 (Plasmodium falciparum, UniProt Q8I298); assay type: binding; conditions: 100 µM W-991 vs DMSO; 7-25% AEF; p = 0.0014
T1 construct: endogenous in cells; host or cells: P. falciparum mature blood stages (30-42 hpi), soluble lysate
Description: The experiment was carried out in three biological replicates. Saponin-liberated mature parasite stages (30-42 hpi) were resuspended in PBS and lysed by 3x flash freeze/thawing using liquid N2, followed by 10 x mechanical sheering with a 29 G needle-syringe, and soluble protein isolation through ultracentrifugation (100,000 g; 20 min, 4 °C). Protein lysate was exposed to the 100 µM of W-991 or the vehicle control (DMSO) for 3 min and subsequently incubated with varying concentration of the solvent mixture ‘AEF’ (50% Acetone, 50% Ethanol, 0.1% Formate) to a final concentration of 7-25% (v/v) with 2% intervals, for 20 min at 37 °C at 800 rpm on a Thermomixer (Eppendorf). Denatured protein was pelleted through centrifugation (4 °C, 18,000 g, 20 min), and the soluble phase was recovered and pulled together in equivolume ratios into two samples; Gradient 1 ‘G1’: 7-15% EAF and Gradient 2 ‘G2’: 17-25% EAF, respectively. […]
Peptide samples were analysed on Orbitrap Eclipse Tribrid mass spectrometer that is interfaced with the Neo Vanquish liquid chromatography system. […] Subsequently, the differential abundance analysis (moderated t-test, based on limma package[81]) of P. falciparum proteins was conducted in the R environment (R version 4.2.0; R Studio Version 2023.12.1 + 402) using precursor normalised MaxLFQ data for proteins detected with ≥2 peptides. […]

[1] = test system: PF3D7_1351000 (START-domain protein); assay: Solvent-PISA (solvent proteome profiling, DIA-MS); assay type: binding, Plasmodium falciparum; conditions: 100 µM W-991 vs DMSO; Fig S4E
Description: (§1) The experiment was carried out in three biological replicates. Saponin-liberated mature parasite stages (30-42 hpi) were resuspended in PBS and lysed by 3x flash freeze/thawing using liquid N2, followed by 10 x mechanical sheering with a 29 G needle-syringe, and soluble protein isolation through ultracentrifugation (100,000 g; 20 min, 4 °C). Protein lysate was exposed to the 100 µM of W-991 or the vehicle control (DMSO) for 3 min and subsequently incubated with varying concentration of the solvent mixture ‘AEF’ (50% Acetone, 50% Ethanol, 0.1% Formate) to a final concentration of 7-25% (v/v) with 2% intervals, for 20 min at 37 °C at 800 rpm on a Thermomixer (Eppendorf). Denatured protein was pelleted through centrifugation (4 °C, 18,000 g, 20 min), and the soluble phase was recovered and pulled together in equivolume ratios into two samples; Gradient 1 ‘G1’: 7-15% EAF and Gradient 2 ‘G2’: 17-25% EAF, respectively.
(§2) Sample preparation for proteomic analysis was carried out using modified SP4 glass beads protocol. In brief, protein was reduced (20 mM TCEP, 100 mM TEAB) for 20 min at 55 °C and alkylated with 55 mM 2-Chloroacetamide for 30 min, followed by precipitation on beads in 80% ACN with a 6 min centrifugation at 21,000 g and 3 x wash with 80% Ethanol. Dried beads were subjected to sequential digestion with LysC (3 h, 1:50 ratio w/w) and trypsin (overnight, 1:50 ratio w/w), and the resulting digest was acidified with 1% TFA and desalted on T3 C18 stage tips (Affinisep) according to manufacturer’s specifications.
(§3) Peptide samples were analysed on Orbitrap Eclipse Tribrid mass spectrometer that is interfaced with the Neo Vanquish liquid chromatography system. Samples were loaded onto a C18 fused silica column (inner diameter 75 µm, OD 360 µm × 15 cm length, 1.6 µm C18 beads) packed into an emitter tip (IonOpticks) using pressure-controlled loading with a maximum pressure of 1,500 bar, that is interfaced to the mass spectrometer using Easy nLC source and electro sprayed directly into the mass spectrometer. Sample separation was carried out on a linear gradient 5% to 17% of solvent-B at 400 nL /min flow rate (solvent-B: 80% (by vol) acetonitrile) for 23 min and 17% to 25% solvent-B for 10 min, 25% to 34% for 11 min and 34% to 90% solvent-B for 1 min which was maintained at 90% B for 3 min and washed the column at 2% solvent-B for another 3 min comprising a total of 63 min run with a 45 min gradient in a data independent acquisition (DIA) mode MS scan parameters included a full scan using an orbitrap and 120,000 resolution, standard AGC target and maximum injection time of 30 ms. A second DIA experiment used the orbitrap at […] resolution, a precursor scan range of 200-1200 m/z with a normalized AGC target of 3000% and 45 variable isolation windows. Peptides were isolated and fragmented using stepped […] (HCD) at 24%, 28% and 32% normalized collision energy. Peptide identification was carried out in DIA-NN 1.8.1 using standard settings and an in silico spectral library generated from Uniprot P. falciparum (UP000001450) and human (UP000005640) reference proteomes. The peptide length range was set to 7-30 amino acids. […] Subsequently, the differential abundance analysis (moderated t-test, based on limma package[81]) of P. falciparum proteins was conducted in the R environment (R version 4.2.0; R Studio Version 2023.12.1 + 402) using precursor normalised MaxLFQ data for proteins detected with ≥2 peptides. […]

[2] = test system: PF3D7_1463500 (START-domain protein); assay: Solvent-PISA (solvent proteome profiling, DIA-MS); assay type: binding, Plasmodium falciparum; conditions: 100 µM W-991 vs DMSO; Fig S4E
Description: as §1, §2, §3

[3] = test system: merozoites-associated armadillo repeats protein (MAAP, PF3D7_1035900); assay: Solvent-PISA (solvent proteome profiling, DIA-MS); assay type: binding, Plasmodium falciparum; conditions: 100 µM W-991 vs DMSO; 7-25% AEF
Description: as §1, §2, §3

[4] = test system: ring-infected erythrocyte surface antigen (RESA3, PF3D7_1149200); assay: Solvent-PISA (solvent proteome profiling, DIA-MS); assay type: binding, Plasmodium falciparum; conditions: 100 µM W-991 vs DMSO; 7-25% AEF
Description: as §1, §2, §3

[5] = test system: signal recognition particle subunit (SRP19, PF3D7_1216300); assay: Solvent-PISA (solvent proteome profiling, DIA-MS); assay type: binding, Plasmodium falciparum; conditions: 100 µM W-991 vs DMSO; 7-25% AEF
Description: as §1, §2, §3

P. berghei = conditions: at concentrations that are effective against P. falciparum; ref Nguyen et al. 2024; cited from earlier work

T1 sequence (Q8I298 entry or part of it): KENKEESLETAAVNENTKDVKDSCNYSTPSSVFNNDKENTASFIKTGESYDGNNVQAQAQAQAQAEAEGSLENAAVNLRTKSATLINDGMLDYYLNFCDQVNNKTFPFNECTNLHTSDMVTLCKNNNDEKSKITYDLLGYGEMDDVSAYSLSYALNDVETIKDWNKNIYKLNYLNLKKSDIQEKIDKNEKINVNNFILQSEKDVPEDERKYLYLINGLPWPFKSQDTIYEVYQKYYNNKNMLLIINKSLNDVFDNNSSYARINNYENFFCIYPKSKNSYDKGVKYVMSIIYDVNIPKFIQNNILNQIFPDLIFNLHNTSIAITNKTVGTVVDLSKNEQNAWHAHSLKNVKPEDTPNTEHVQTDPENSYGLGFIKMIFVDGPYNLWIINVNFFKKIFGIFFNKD

## CC(C)(Nc1ccc(Cl)c(S(=O)(=O)N2CCOCC2)c1)C(=O)Nc1ccc(F)c(Cl)c1 [W-991]
PfSTART1
  soluble protein level in the presence of compound (stabilisation): significantly (p < 0.01) increased levels
[1]
  abundance/stability of the protein on compound treatment: not affected
[2]
  abundance/stability of the protein on compound treatment: not affected
[3]
  soluble protein level in the presence of compound (stabilisation): drug-stabilised
[4]
  soluble protein level in the presence of compound (stabilisation): drug-stabilised
[5]
  soluble protein level in the presence of compound (stabilisation): drug-stabilised
P. berghei
  effect on P. berghei parasitemia: does not reduce P. berghei parasitemia

— PMC11189555, “Aryl amino acetamides prevent Plasmodium falciparum ring development via targeting the lipid-transfer protein PfSTART1” (Nature Communications, 2024)
